Values of other authors as cited in paper PMC12497738, “Linear and conformational epitopes of vicilin-buried peptides as a model for improved nut allergy diagnostics” (Frontiers in Allergy, 2025).
“Also recorded” adds a separate entry of the source.

System: 6D12 monoclonal antibody
Settings: N-terminal helix, amino acids 21–36 of folded JR2.1; unpublished communications by Dr. Geoffrey Mueller (NIEHS); ref [16]
Excerpt: The mature vicilin domains in Figure 1A are labeled Jug r 2 and Ara h 1. A human monoclonal IgE antibody (6D12) was used to assess IgE binding to conformational epitopes in JR2LS and its three constituent VBPs using ciELISA (Figures 1B,C). […] With this method, a known immunodominant epitope of Ara h 2 was used to identify a cross-reactive, linear epitope in the JR2LS ([16]). The IgE binding regions identified in this study overlap or are near the previously described epitope containing areas, emphasizing the relevance of JR2LS VBPs as clinically relevant IgE targets ([16], [17]). Here, ELISA, linear peptide microarray, and computational analysis were used to ...

## CQEYCRRQGQGQRQQ [peptide 5, …, N-terminal helix, amino acids 21–36 of the folded JR2.1]
  Binding of 6D12 to peptide 5, in words: specific binding; also recorded: the primary target of 6D12
